Bridge positions count the residues as written; N and C are the ends. Square brackets hold non-standard residues; d marks the D form. Peptide text beside a SMILES is read from it. * marks the point of attachment. 5FAM = O=C1OC2(c3ccc(O)cc3Oc3cc(O)ccc32)c2ccc(C(=O)*)cc21; R8 = C=CCCCCCC[C@@](C)(N)C(=O)O; S5 = C=CCCC[C@](C)(N)C(=O)O; Nle = CCCC[C@H](N)C(=O)O
Experiments:
[1] = tested on: Expi293 cells; settings: percentage of Helicons in cells after treatment and wash; Expi293 cells 1x10^6 cells/mL, 22 hours, 37°C; washed twice with DPBS; MS quantitation, single-point calibration; n=2, mean ± SD
[2] = tested on: Expi293 cells; settings: luminescence at Tfinal (22 hours) divided by Tinitial, measure of ATP levels, reflective of cell health

Structure (SMILES) | Helicon in cells ± SD (%) [1] [%] | CellTiter-Glo fold change ± SD [2]
CCCC[C@H](NC(=O)[C@H](Cc1ccc(O)cc1)NC(=O)[C@H](CCC(N)=O)NC(=O)[C@]1(C)CCCC=CCCCCCC[C@@](C)(NC(=O)[C@H](CCC(=O)O)NC(=O)[C@H](CC(C)C)NC(=O)[C@@H](NC(C)=O)[C@@H](C)CC)C(=O)N[C@@H](Cc2ccc(O)cc2)C(=O)N[C@@H](CCC(=O)O)C(=O)N[C@@H](C)C(=O)N[C@@H](C)C(=O)N[C@@H](Cc2ccccc2)C(=O)N[C@@H](CCC(=O)O)C(=O)N1)C(N)=O [FP08018] (Ac-ILE[R8]YEAAFE[S5]QY[Nle]-NH2; staple 4-11) | 1.0 ± 0.1 | 1.1 ± 0.05
CC(C)C[C@H](NC(=O)[C@H](C)NC(=O)CNC(=O)[C@H](CCCCN)NC(=O)[C@H](CCCNC(=N)N)NC(=O)[C@H](C)NC(=O)[C@H](Cc1ccccc1)NC(=O)[C@H](CCCNC(=N)N)NC(=O)[C@H](CCC(N)=O)NC(=O)c1ccc2c(c1)C(=O)OC21c2ccc(O)cc2Oc2cc(O)ccc21)C(=O)N[C@@H](CCCNC(=N)N)C(=O)N[C@@H](CCC(N)=O)C(=O)N[C@@H](CCCCN)C(=O)N[C@@H](CC(N)=O)C(=O)N[C@H](C(N)=O)C(C)C [FP47831, reference compound] (5FAM-QRFARKGALRQKNV-NH2) | 0.0 ± 0.0 | 1.1 ± 0.02
CCCC[C@H](NC(=O)[C@@H](NC(C)=O)[C@@H](C)CC)C(=O)N[C@@H](C)C(=O)N[C@]1(C)CCCCCCC=CCCC[C@@](C)(C(=O)N[C@@H](CCC(N)=O)C(=O)N[C@@H](Cc2ccc(O)cc2)C(=O)N[C@@H](CC(N)=O)C(N)=O)NC(=O)[C@H](Cc2c[nH]c3ccccc23)NC(=O)[C@H](Cc2ccccc2)NC(=O)[C@H](C)NC(=O)[C@H](C)NC(=O)[C@H](CCC(N)=O)NC(=O)[C@H](Cc2ccc(O)cc2)NC1=O [FP08023] (Ac-I[Nle]A[R8]YQAAFW[S5]QYN-NH2; staple 4-11) | 3.0 ± 0.3 | 1.2 ± 0.03
CCCC[C@H](NC(=O)[C@@H](NC(C)=O)C(C)C)C(=O)N[C@@H](CCC(N)=O)C(=O)N[C@]1(C)CCCCCCC=CCCC[C@@](C)(C(=O)N[C@@H](Cc2c[nH]cn2)C(=O)N[C@@H](Cc2ccc(O)cc2)C(=O)N[C@H](C(N)=O)C(C)C)NC(=O)[C@H]([C@@H](C)CC)NC(=O)[C@H](Cc2ccccc2)NC(=O)[C@H](C)NC(=O)[C@H](C)NC(=O)[C@H](CCC(N)=O)NC(=O)[C@H](Cc2ccc(O)cc2)NC1=O [FP07872] (Ac-V[Nle]Q[R8]YQAAFI[S5]HYV-NH2; staple 4-11) | 11.7 ± 1.6 | 1.1 ± 0.02
CCCC[C@H](NC(=O)[C@@H](NC(C)=O)C(C)C)C(=O)N[C@@H](CCC(=O)O)C(=O)N[C@]1(C)CCCCCCC=CCCC[C@@](C)(C(=O)N[C@@H](Cc2c[nH]cn2)C(=O)N[C@@H](Cc2ccc(O)cc2)C(=O)N[C@H](C(N)=O)C(C)C)NC(=O)[C@H]([C@@H](C)CC)NC(=O)[C@H](Cc2ccccc2)NC(=O)[C@H](C)NC(=O)[C@H](C)NC(=O)[C@H](CCC(N)=O)NC(=O)[C@H](Cc2ccc(O)cc2)NC1=O [FP07868] (Ac-V[Nle]E[R8]YQAAFI[S5]HYV-NH2; staple 4-11) | 10.3 ± 1.4 | 1.2 ± 0.10
CCCC[C@H](NC(=O)[C@@H](NC(C)=O)C(C)C)C(=O)N[C@@H](CCC(N)=O)C(=O)N[C@]1(C)CCCCCCC=CCCC[C@@](C)(C(=O)N[C@@H](Cc2c[nH]cn2)C(=O)N[C@@H](Cc2ccc(O)cc2)C(=O)N[C@H](C(N)=O)C(C)C)NC(=O)[C@H]([C@@H](C)CC)NC(=O)[C@H](Cc2ccccc2)NC(=O)[C@H](C)NC(=O)[C@H](C)NC(=O)[C@H](CCC(=O)O)NC(=O)[C@H](Cc2ccc(O)cc2)NC1=O [FP07864] (Ac-V[Nle]Q[R8]YEAAFI[S5]HYV-NH2; staple 4-11) | 18.5 ± 11.4 | 1.1 ± 0.05
CC[C@H](C)[C@H](NC(=O)[C@H](Cc1ccc(O)cc1)NC(=O)[C@H](CCC(N)=O)NC(=O)[C@]1(C)CCCC=CCCCCCC[C@@](C)(NC(=O)[C@H](Cc2c[nH]cn2)NC(=O)[C@@H](NC(=O)[C@@H](NC(C)=O)[C@@H](C)CC)[C@@H](C)CC)C(=O)N[C@@H](Cc2ccc(O)cc2)C(=O)N[C@@H](CCC(=O)O)C(=O)N[C@@H](C)C(=O)N[C@@H](C)C(=O)N[C@@H](Cc2ccccc2)C(=O)N[C@@H](Cc2ccccc2)C(=O)N1)C(N)=O [FP08011] (Ac-IIH[R8]YEAAFF[S5]QYI-NH2; staple 4-11) | 6.5 ± 0.5 | 1.2 ± 0.01
CC[C@H](C)[C@H](NC(=O)[C@H](Cc1ccc(O)cc1)NC(=O)[C@H](CCC(N)=O)NC(=O)[C@]1(C)CCCC=CCCCCCC[C@@](C)(NC(=O)[C@H](Cc2c[nH]cn2)NC(=O)[C@@H](NC(=O)[C@@H](NC(C)=O)[C@@H](C)CC)[C@@H](C)CC)C(=O)N[C@@H](Cc2ccc(O)cc2)C(=O)N[C@@H](CCC(=O)O)C(=O)N[C@@H](C)C(=O)N[C@@H](C)C(=O)N[C@@H](Cc2ccccc2)C(=O)N[C@@H](Cc2ccccc2)C(=O)N1)C(N)=O [FP08012] (Ac-IIH[R8]YEAAFF[S5]QYI-NH2; staple 4-11) | 5.4 ± 0.9 | 1.1 ± 0.04
CCCC[C@H](NC(=O)[C@@H](NC(C)=O)C(C)C)C(=O)N[C@@H](CCC(N)=O)C(=O)N[C@]1(C)CCCCCCC=CCCC[C@@](C)(C(=O)N[C@@H](Cc2c[nH]cn2)C(=O)N[C@@H](Cc2ccc(O)cc2)C(=O)N[C@H](C(N)=O)C(C)C)NC(=O)[C@H]([C@@H](C)CC)NC(=O)[C@H](Cc2ccccc2)NC(=O)[C@H](C)NC(=O)[C@H](C)NC(=O)[C@H](CCC(=O)O)NC(=O)[C@H](Cc2ccc(O)cc2)NC1=O [FP07863] (Ac-V[Nle]Q[R8]YEAAFI[S5]HYV-NH2; staple 4-11) | 23.5 ± 6.5 | 1.2 ± 0.02
CCCC[C@H](NC(=O)[C@@H](NC(C)=O)C(C)C)C(=O)N[C@@H](CCC(=O)O)C(=O)N[C@]1(C)CCCCCCC=CCCC[C@@](C)(C(=O)N[C@@H](Cc2c[nH]cn2)C(=O)N[C@@H](Cc2ccc(O)cc2)C(=O)N[C@H](C(N)=O)C(C)C)NC(=O)[C@H]([C@@H](C)CC)NC(=O)[C@H](Cc2ccccc2)NC(=O)[C@H](C)NC(=O)[C@H](C)NC(=O)[C@H](CCC(=O)O)NC(=O)[C@H](Cc2ccc(O)cc2)NC1=O [FP07855] (Ac-V[Nle]E[R8]YEAAFI[S5]HYV-NH2; staple 4-11) | 16.4 ± 0.6 | 1.2 ± 0.10
CCCC[C@H](NC(=O)[C@@H](NC(C)=O)C(C)C)C(=O)N[C@@H](CCC(=O)O)C(=O)N[C@]1(C)CCCCCCC=CCCC[C@@](C)(C(=O)N[C@@H](Cc2c[nH]cn2)C(=O)N[C@@H](Cc2ccc(O)cc2)C(=O)N[C@H](C(N)=O)C(C)C)NC(=O)[C@H]([C@@H](C)CC)NC(=O)[C@H](Cc2ccccc2)NC(=O)[C@H](C)NC(=O)[C@H](C)NC(=O)[C@H](CCC(=O)O)NC(=O)[C@H](Cc2ccc(O)cc2)NC1=O [FP07856] (Ac-V[Nle]E[R8]YEAAFI[S5]HYV-NH2; staple 4-11) | 15.5 ± 0.9 | 1.3 ± 0.12
CC(=O)N[C@@H](CC(C)C)C(=O)N[C@H](C(=O)N[C@@H](Cc1ccccc1)C(=O)N[C@]1(C)CCCCCCC=CCCC[C@@](C)(C(=O)N[C@@H](CO)C(=O)N[C@@H](C)C(=O)N[C@@H](C)C(N)=O)NC(=O)[C@H](CC2CCC2)NC(=O)[C@H](CCC(N)=O)NC(=O)[C@H](C)NC(=O)[C@H](Cc2c[nH]c3ccccc23)NC(=O)[C@H](Cc2ccc(O)cc2)NC(=O)[C@H](CCC(=O)O)NC1=O)[C@@H](C)O [FP01413, reference compound] | 3.7 ± 0.4 | 1.2 ± 0.07
CCCC[C@H](NC(=O)[C@@H](NC(C)=O)C(C)C)C(=O)N[C@@H](CCC(N)=O)C(=O)N[C@]1(C)CCCCCCC=CCCC[C@@](C)(C(=O)N[C@@H](Cc2c[nH]cn2)C(=O)N[C@@H](Cc2ccc(O)cc2)C(=O)N[C@H](C(N)=O)C(C)C)NC(=O)[C@H]([C@@H](C)CC)NC(=O)[C@H](Cc2ccccc2)NC(=O)[C@H](C)NC(=O)[C@H](C)NC(=O)[C@H](CCC(N)=O)NC(=O)[C@H](Cc2ccc(O)cc2)NC1=O [FP07871] (Ac-V[Nle]Q[R8]YQAAFI[S5]HYV-NH2; staple 4-11) | 7.0 ± 0.3 | 1.2 ± 0.03
CCCC[C@H](NC(=O)[C@H](Cc1ccc(O)cc1)NC(=O)[C@H](CCC(N)=O)NC(=O)[C@]1(C)CCCC=CCCCCCC[C@@](C)(NC(=O)[C@H](CCC(=O)O)NC(=O)[C@H](CC(C)C)NC(=O)[C@@H](NC(C)=O)[C@@H](C)CC)C(=O)N[C@@H](Cc2ccc(O)cc2)C(=O)N[C@@H](CCC(=O)O)C(=O)N[C@@H](C)C(=O)N[C@@H](C)C(=O)N[C@@H](Cc2ccccc2)C(=O)N[C@@H](CCC(=O)O)C(=O)N1)C(N)=O [FP08017] (Ac-ILE[R8]YEAAFE[S5]QY[Nle]-NH2; staple 4-11) | 0.6 ± 0.1 | 1.2 ± 0.01
CCCC[C@H](NC(=O)[C@@H](NC(C)=O)C(C)C)C(=O)N[C@@H](CCC(=O)O)C(=O)N[C@]1(C)CCCCCCC=CCCC[C@@](C)(C(=O)N[C@@H](Cc2c[nH]cn2)C(=O)N[C@@H](Cc2ccc(O)cc2)C(=O)N[C@H](C(N)=O)C(C)C)NC(=O)[C@H]([C@@H](C)CC)NC(=O)[C@H](Cc2ccccc2)NC(=O)[C@H](C)NC(=O)[C@H](C)NC(=O)[C@H](CCC(N)=O)NC(=O)[C@H](Cc2ccc(O)cc2)NC1=O [FP07867] (Ac-V[Nle]E[R8]YQAAFI[S5]HYV-NH2; staple 4-11) | 8.6 ± 0.4 | 1.2 ± 0.03
CCCC[C@H](NC(=O)[C@@H](NC(C)=O)[C@@H](C)CC)C(=O)N[C@@H](C)C(=O)N[C@]1(C)CCCCCCC=CCCC[C@@](C)(C(=O)N[C@@H](CCC(N)=O)C(=O)N[C@@H](Cc2ccc(O)cc2)C(=O)N[C@@H](CC(N)=O)C(N)=O)NC(=O)[C@H](Cc2c[nH]c3ccccc23)NC(=O)[C@H](Cc2ccccc2)NC(=O)[C@H](C)NC(=O)[C@H](C)NC(=O)[C@H](CCC(N)=O)NC(=O)[C@H](Cc2ccc(O)cc2)NC1=O [FP08024] (Ac-I[Nle]A[R8]YQAAFW[S5]QYN-NH2; staple 4-11) | 6.5 ± 0.5 | 1.2 ± 0.00
